{"source": "paper PMC4681651", "about": "(Neuropharmacology, 2015)", "key": {"[1]": {"test_system": "rat α3β4 nAChRs", "conditions": "2001, cited from earlier work; for block of rat α3β4 nAChR channels: ref Xiao et al."}, "[2]": {"test_system": "Sprague-Dawley rats", "assay": "Open field locomotor activity", "assay_type": "in vivo", "conditions": "rat, 30 min after injection, 10 min test"}, "[3]": {"conditions": "100 mg/kg, sc; ref Pohland et al., 1971; cited from earlier work"}, "[4]": {"test_system": "opiate receptor binding sites labeled by [^3H]-naloxone", "assay": "[3H]-naloxone binding competition assay in rat forebrain membranes"}, "[5]": {"test_system": "129SvEv;C57Bl/6J F1 hybrid mice", "assay": "Marble burying", "assay_type": "in vivo", "conditions": "mouse, 10 min before 15 min test"}, "[6]": {"assay": "Straub tail observation", "assay_type": "in vivo", "conditions": "doses used in the behavioral studies"}, "[7]": {"test_system": "129SvEv;C57Bl/6J F1 hybrid mice", "assay": "Forced swim test", "assay_type": "in vivo, mouse", "conditions": "6 min test; for immobility time vs vehicle: mouse"}, "[8]": {"test_system": "Sprague-Dawley rats", "assay": "Forced swim test", "assay_type": "in vivo", "conditions": "rat, three doses, 300 sec test"}, "[9]": {"target": "human α3β4 nAChRs (Homo sapiens, UniProt P30926+P32297)", "sequence (P32297 32-505)": "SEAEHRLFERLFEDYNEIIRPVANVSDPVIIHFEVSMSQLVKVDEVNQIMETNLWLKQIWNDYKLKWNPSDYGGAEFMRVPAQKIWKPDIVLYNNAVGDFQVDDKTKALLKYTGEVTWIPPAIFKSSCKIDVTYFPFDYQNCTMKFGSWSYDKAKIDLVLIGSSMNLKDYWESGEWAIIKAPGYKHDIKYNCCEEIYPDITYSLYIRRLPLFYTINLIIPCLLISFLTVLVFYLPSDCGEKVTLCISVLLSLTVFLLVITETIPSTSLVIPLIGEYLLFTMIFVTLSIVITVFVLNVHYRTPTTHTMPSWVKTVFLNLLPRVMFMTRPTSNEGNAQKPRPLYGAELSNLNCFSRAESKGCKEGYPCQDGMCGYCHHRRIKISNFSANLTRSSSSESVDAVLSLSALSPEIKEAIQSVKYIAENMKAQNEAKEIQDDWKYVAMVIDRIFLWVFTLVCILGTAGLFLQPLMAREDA", "sequence (P30926 22-498)": "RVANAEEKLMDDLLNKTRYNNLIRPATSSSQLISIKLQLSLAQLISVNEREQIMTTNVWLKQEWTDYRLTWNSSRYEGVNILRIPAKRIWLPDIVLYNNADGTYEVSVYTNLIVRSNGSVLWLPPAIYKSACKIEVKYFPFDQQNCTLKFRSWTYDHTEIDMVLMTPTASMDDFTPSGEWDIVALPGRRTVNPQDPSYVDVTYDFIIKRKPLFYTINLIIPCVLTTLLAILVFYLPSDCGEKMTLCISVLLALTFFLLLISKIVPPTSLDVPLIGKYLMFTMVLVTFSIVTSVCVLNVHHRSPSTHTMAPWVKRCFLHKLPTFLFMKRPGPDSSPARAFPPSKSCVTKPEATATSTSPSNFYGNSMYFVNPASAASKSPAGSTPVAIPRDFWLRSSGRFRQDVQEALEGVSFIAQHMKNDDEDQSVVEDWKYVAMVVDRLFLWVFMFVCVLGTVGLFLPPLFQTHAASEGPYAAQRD", "assay": "86Rb+ efflux assay, block of nicotine-stimulated channel function"}, "[10]": {"test_system": "Sprague-Dawley rats", "assay_type": "in vivo", "conditions": "rat"}, "[11]": {"test_system": "129SvEv;C57Bl/6J F1 hybrid mice", "assay": "Home cage locomotor activity", "assay_type": "in vivo", "conditions": "mouse, 0.5, 1, 5, 10 mg/kg i.p., 60 min"}, "[12]": {"conditions": "[3H]-naloxone sites, rat forebrain"}}, "note": "Several values for one entry are separate records, joined by “and”; a condition that tells them apart may be missing. Equal entries are not always repeated. Structures can show the parent of a compound that is named as a salt. Where two headings read alike, the source gives them in different places."}
{"compound": "2-ethylidene-1,5,dimethyl-3,3-diphenylpyrrolidine perchlorate [EDDP]", "values": [{"measurement": "block of rat α3β4 nAChR channels", "setting": "[1]", "value": "potently block"}, {"measurement": "open field locomotor activity", "setting": "[2]; 10mg/kg s.c.", "value": "neither EDDP nor EMDP significantly altered open field locomotor activity"}, {"measurement": "analgesia in the tail-flick assay", "setting": "[3]", "value": "neither compound produces analgesia"}, {"measurement": "fold lower affinity than methadone", "setting": "[4]; [12]", "value": "~ 83 fold"}, {"measurement": "fraction of binding sites competed for", "setting": "[4]; [12]", "value": "nearly all of the binding sites"}, {"measurement": "marbles buried vs vehicle", "setting": "[5]; 5 mg/kg i.p.", "value": "buried significantly fewer marbles"}, {"measurement": "marbles buried vs vehicle", "setting": "[5]; 10 mg/kg i.p.", "value": "did not reach statistical significance"}, {"measurement": "Straub tail effects", "setting": "[6]", "value": "failed to observe any Straub tail effects"}, {"measurement": "duration of immobility vs vehicle", "setting": "[7]; mouse, 1, 5, or 10 mg/kg i.p.", "value": "did not produce a significant effect on duration of immobility"}, {"measurement": "immobile time vs vehicle", "setting": "[8]; 10 mg/kg s.c.", "value": "without effect"}]}
{"compound": "CNC1=Nc2ccc(Cl)cc2C(c2ccccc2)=[N+]([O-])C1", "note": "[CDP, chlordiazepoxide HCl, reference compound]", "values": [{"measurement": "marbles buried vs vehicle", "setting": "[5]; 10 mg/kg i.p.", "value": "buried significantly fewer marbles"}]}
{"compound": "CCC1=NC(C)CC1(c1ccccc1)c1ccccc1.Cl", "note": "(centres unmarked) [EMDP, 2-ethyl-5-methyl-3,3,-diphenyl-1-pyrroline hydrochloride]", "values": [{"measurement": "potency relative to mecamylamine in blocking rat α3β4 nAChRs", "setting": "[1]; ref Xiao et al", "value": "only one-sixth as potent"}, {"measurement": "block of rat α3β4 nAChR channels", "setting": "[1]", "value": "potently block"}, {"measurement": "open field locomotor activity", "setting": "[2]; 5mg/kg s.c.", "value": "neither EDDP nor EMDP significantly altered open field locomotor activity"}, {"measurement": "potency relative to mecamylamine in blocking human α3β4 nAChRs", "setting": "[9]", "value": "only half as potent as mecamylamine"}, {"measurement": "analgesia in the tail-flick assay", "setting": "[3]", "value": "neither compound produces analgesia"}, {"measurement": "ptosis over 3h observation", "setting": "[10]; 20 mg/kg", "value": "ptosis was not apparent at any time"}, {"measurement": "ptosis observed during forced swim tests", "setting": "[10]; 10 and 20 mg/kg", "value": "did not produce ptosis"}, {"measurement": "Ki", "setting": "[4]; 2 nM [3H]-naloxone, rat forebrain, single-site fit", "value": 21, "unit": "µM"}, {"measurement": "fold lower affinity than methadone", "setting": "[4]; [12]", "value": "1900 fold and ~ 1900 fold"}, {"measurement": "sites competed for", "setting": "[4]; even at a concentration of 100 μM", "value": 60, "unit": "%"}, {"measurement": "marbles buried vs vehicle", "setting": "[5]; 1 mg/kg i.p.", "value": "not at the 1 mg/kg dose"}, {"measurement": "marbles buried vs vehicle", "setting": "[5]; 5 mg/kg i.p.", "value": "buried significantly fewer marbles"}, {"measurement": "marbles buried vs vehicle", "setting": "[5]; 10 mg/kg i.p.", "value": "buried significantly fewer marbles"}, {"measurement": "Straub tail effects", "setting": "[6]", "value": "failed to observe any Straub tail effects"}, {"measurement": "immobility time vs vehicle", "setting": "[7]; 5 mg/kg i.p.", "value": "did not affect immobility time"}, {"measurement": "immobility time vs vehicle", "setting": "[7]; 10 mg/kg i.p.", "value": "significantly reduced it"}, {"measurement": "immobile time vs vehicle", "setting": "[8]; 10 mg/kg s.c.", "value": "reduced immobile time"}, {"measurement": "immobile time vs vehicle", "setting": "[8]; 20 mg/kg s.c.", "value": "reduced immobile time"}, {"measurement": "overall locomotor activity", "setting": "[11]", "value": "did not significantly affect overall locomotor activity"}]}
{"compound": "CNC1(C)C2CCC(C2)C1(C)C", "note": "(centres unmarked) [Mecamylamine, Mecamylamine HCl]", "values": [{"measurement": "onset of ptosis after injection", "setting": "[10]; 5 mg/kg", "value": "≤ 15", "unit": "min"}, {"measurement": "ptosis observed during forced swim tests", "setting": "[10]; 5 mg/kg", "value": "obvious ptosis"}, {"measurement": "ptosis over 3h observation", "setting": "[10]; 5 mg/kg, significant at 30 and 45 min, not at 3 h", "value": "produced ptosis in a time-dependent manner"}, {"measurement": "immobile time vs vehicle", "setting": "[8]; 5 mg/kg s.c.", "value": "reduced immobile time"}]}
{"compound": "CN[C@H]1CC[C@@H](c2ccc(Cl)c(Cl)c2)c2ccccc21", "note": "[sertraline, sertraline HCl, reference compound]", "values": [{"measurement": "immobile time vs vehicle", "setting": "[8]; 20 mg/kg s.c.", "value": "significantly reduced immobile time"}]}
